In patent US20060100255A1, “Substituted indolealkanoic acids derivative and formulations containing same for use in the treatment of diabetic complications” (priority 2002, published 2006):

Assays:
[1] = test system: sorbitol levels in the sciatic nerve and lens; assay: 8-day STZ diabetic rat model, sorbitol lowering versus known ARIs; format: in vivo; details: 10 mg/kg/day
Text: 3-[(4,5,7-trifluoro-1,3-benzothiazol-2-yl)methyl]-1H-indol-1-yl}acetic acid monohydrate is compared to the known […] inhibitors (ARI) zenarestat and zopolrestat in an 8-day STZ diabetic rat model.

NCV = assay: comparison with zenarestat and zopolrestat, inhibition of decline in NCV; format: in vivo
Text: 3-[(4,5,7-trifluoro-1,3-benzothiazol-2-yl)methyl]-1H-indol-1-yl}acetic acid monohydrate compares very favorably with the ability of zenarestat and zopolrestat to inhibit the decline in NCV. […]

[2] = test system: sorbitol accumulation in the sciatic nerve; assay: sorbitol accumulation in sciatic nerve of streptozotocin-induced diabetic rats, 15 day study; format: in vivo, rat
Text: (§1) The test methods employed to determine the efficacy are essentially those of Mylari, et al., J. Med. Chem. 34: 108, 1991.

[3] = test system: nerve conduction velocity (NCV) in the sciatic nerve; assay: 3 month study in STZ-diabetic rats, nerve conduction velocity; format: in vivo, rat; details: 3 months treatment
Tissue Sorbitol Levels = assay: tissue sorbitol levels in the STZ induced diabetic rat, 30 and 90 day studies; format: in vivo
Text: as §1
[(4,5,7-trifluoro-1,3-benzothiazol-2-yl)methyl]-1H-indol-1-yl}acetic acid monohydrate in reducing Tissue Sorbitol Levels in the STZ Induced Diabetic Rat

[4] = test system: nerve conduction velocity (NCV) in the sciatic nerve; assay: 4-week study in STZ-diabetic rats, loss of nerve conduction velocity; format: in vivo, rat

O=C(O)Cn1c(=O)n(Cc2ccc(Br)cc2F)c(=O)c2ccc(Cl)cc21 [zenarestat]
Lens sorbitol lowering [1]: 0%
Sciatic Nerve sorbitol lowering [1]: 52%
Improvement in NCV (NCV; 32 mg/kg/day, study 2 weeks, treatment 2 weeks): 48%

O=C(O)Cn1cc(Cc2nc3c(F)c(F)cc(F)c3s2)c2ccccc21 [Example 1, 3-(4,5,7-Trifluorobenzothiazol-2-yl)methyl-indole-N-acetic Acid, monohydrate]
ED50, sorbitol accumulation in rat sciatic nerve ([2]; 15 day study): 1.3 mg/kg/day
inhibition of sorbitol accumulation, rat sciatic nerve ([2]; 15 day study, 4.8 mg/kg/day): 100%
changes in fructose ([2]; STZ diabetic rat tissues): levels were reduced
changes in mysinositol ([2]; STZ diabetic rat tissues): levels were increased
Improvement in NCV ([3]; 5 mg/kg/day): 50%
Improvement in NCV ([3]; 10 mg/kg/day): 68%
Improvement in NCV ([3]; 25 mg/kg/day): 105%
Lens sorbitol lowering [1]: 25-42%
Sciatic Nerve sorbitol lowering [1]: 100%
Improvement in NCV (NCV; 25 mg/kg/day, study 4 weeks, treatment 3 weeks): 79%
% Sorbitol Reduction, Lens (Tissue Sorbitol Levels; 30 days, 5 mg/kg/day): 88%
% Sorbitol Reduction, Sciatic Nerve (Tissue Sorbitol Levels; 30 days, 5 mg/kg/day): 100%
% Sorbitol Reduction, Lens (Tissue Sorbitol Levels; 30 days, 10 mg/kg/day): 90%
% Sorbitol Reduction, Sciatic Nerve (Tissue Sorbitol Levels; 30 days, 10 mg/kg/day): 100%
% Sorbitol Reduction, Lens (Tissue Sorbitol Levels; 30 days, 25 mg/kg/day): 95%
% Sorbitol Reduction, Sciatic Nerve (Tissue Sorbitol Levels; 30 days, 25 mg/kg/day): 100%
% Sorbitol Reduction, Kidney Cortex (Tissue Sorbitol Levels; 90 days, 5 mg/kg/day): 33%
% Sorbitol Reduction, Kidney Medulla (Tissue Sorbitol Levels; 90 days, 5 mg/kg/day): 36%
% Sorbitol Reduction, Retina (Tissue Sorbitol Levels; 90 days, 5 mg/kg/day): 89%
% Sorbitol Reduction, Sciatic Nerve (Tissue Sorbitol Levels; 90 days, 5 mg/kg/day): 100%
% Sorbitol Reduction, Kidney Cortex (Tissue Sorbitol Levels; 90 days, 10 mg/kg/day): 25%
% Sorbitol Reduction, Kidney Medulla (Tissue Sorbitol Levels; 90 days, 10 mg/kg/day): 47%
% Sorbitol Reduction, Retina (Tissue Sorbitol Levels; 90 days, 10 mg/kg/day): 99%
% Sorbitol Reduction, Sciatic Nerve (Tissue Sorbitol Levels; 90 days, 10 mg/kg/day): 100%
% Sorbitol Reduction, Kidney Cortex (Tissue Sorbitol Levels; 90 days, 25 mg/kg/day): 45%
% Sorbitol Reduction, Kidney Medulla (Tissue Sorbitol Levels; 90 days, 25 mg/kg/day): 58%
% Sorbitol Reduction, Retina (Tissue Sorbitol Levels; 90 days, 25 mg/kg/day): 96%
% Sorbitol Reduction, Sciatic Nerve (Tissue Sorbitol Levels; 90 days, 25 mg/kg/day): 100%
inhibition of decline of nerve conduction velocity (NCV) in the sciatic nerve ([4]; 5 mg/kg/day): 14%
inhibition of decline of nerve conduction velocity (NCV) in the sciatic nerve ([4]; 10 mg/kg/day): 41%
inhibition of decline of nerve conduction velocity (NCV) in the sciatic nerve ([4]; 25 mg/kg/day): 79%

O=C(O)Cc1nn(Cc2nc3cc(C(F)(F)F)ccc3s2)c(=O)c2ccccc12 [zopolrestat]
Lens sorbitol lowering [1]: 0%
Sciatic Nerve sorbitol lowering [1]: 71%
Improvement in NCV (NCV; 25 mg/kg/day, study 4 weeks, treatment 4 weeks): 43%
